Reference: patent publication US10266497B2 (ABIDE THERAPEUTICS, INC., priority 2017, dated 2019)

What was measured:
MAGL [1] = molecular target: T1, MAGL (Homo sapiens, UniProt Q99685); assay: In vitro competitive activity-based protein profiling, MAGL, human; conditions: for inhibition at 1 µM: read-out: MAGL % inh. 1 μM (human)
T1 sequence (Q99685 1-303): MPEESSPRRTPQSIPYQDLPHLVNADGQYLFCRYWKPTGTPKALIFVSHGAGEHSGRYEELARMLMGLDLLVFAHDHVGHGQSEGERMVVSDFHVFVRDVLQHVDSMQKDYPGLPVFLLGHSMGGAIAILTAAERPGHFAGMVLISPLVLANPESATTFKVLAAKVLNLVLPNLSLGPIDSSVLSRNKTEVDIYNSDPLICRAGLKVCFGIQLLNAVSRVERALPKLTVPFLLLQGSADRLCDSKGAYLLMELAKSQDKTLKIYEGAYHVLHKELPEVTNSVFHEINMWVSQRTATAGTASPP

MAGL [2] = molecular target: T2, MAGL (Mus musculus, UniProt O35678); assay: In vitro competitive activity-based protein profiling, MAGL, mouse; conditions: read-out: MAGL % inh. 1 μM (mouse)
T2 sequence (O35678 1-303): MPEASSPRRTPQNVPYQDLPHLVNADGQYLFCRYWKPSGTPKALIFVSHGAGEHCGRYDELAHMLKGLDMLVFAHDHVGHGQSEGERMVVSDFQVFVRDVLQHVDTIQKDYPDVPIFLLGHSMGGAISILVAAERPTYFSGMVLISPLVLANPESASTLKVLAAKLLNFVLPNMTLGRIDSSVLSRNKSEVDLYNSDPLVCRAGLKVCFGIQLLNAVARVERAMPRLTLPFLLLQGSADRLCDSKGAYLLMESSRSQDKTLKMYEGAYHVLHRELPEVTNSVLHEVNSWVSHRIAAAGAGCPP

FAAH [3] = molecular target: T3, FAAH (Homo sapiens, UniProt O00519); assay: In vitro competitive activity-based protein profiling, FAAH, human; conditions: for inhibition at 1 µM: read-out: FAAH % inh. 1 μM (human)
T3 sequence (O00519 1-579): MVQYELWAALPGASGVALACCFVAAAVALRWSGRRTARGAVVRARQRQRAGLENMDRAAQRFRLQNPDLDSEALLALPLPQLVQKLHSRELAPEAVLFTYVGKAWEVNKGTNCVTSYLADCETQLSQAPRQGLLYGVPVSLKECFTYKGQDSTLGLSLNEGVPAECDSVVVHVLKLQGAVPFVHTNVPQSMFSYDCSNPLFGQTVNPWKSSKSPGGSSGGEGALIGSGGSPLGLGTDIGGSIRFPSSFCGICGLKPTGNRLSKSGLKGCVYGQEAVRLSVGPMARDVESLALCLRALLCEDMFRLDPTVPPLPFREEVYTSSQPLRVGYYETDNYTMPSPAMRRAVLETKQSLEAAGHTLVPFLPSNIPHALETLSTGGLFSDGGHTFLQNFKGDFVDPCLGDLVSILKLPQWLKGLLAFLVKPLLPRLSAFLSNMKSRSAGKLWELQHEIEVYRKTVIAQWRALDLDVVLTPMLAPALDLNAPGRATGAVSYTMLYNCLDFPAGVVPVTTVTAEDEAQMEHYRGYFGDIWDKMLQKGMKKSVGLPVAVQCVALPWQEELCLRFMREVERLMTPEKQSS

FAAH [4] = molecular target: T4, FAAH (Mus musculus, UniProt O08914); assay: In vitro competitive activity-based protein profiling, FAAH, mouse; conditions: read-out: FAAH % inh. 1 μM (mouse)
T4 sequence (O08914 1-579): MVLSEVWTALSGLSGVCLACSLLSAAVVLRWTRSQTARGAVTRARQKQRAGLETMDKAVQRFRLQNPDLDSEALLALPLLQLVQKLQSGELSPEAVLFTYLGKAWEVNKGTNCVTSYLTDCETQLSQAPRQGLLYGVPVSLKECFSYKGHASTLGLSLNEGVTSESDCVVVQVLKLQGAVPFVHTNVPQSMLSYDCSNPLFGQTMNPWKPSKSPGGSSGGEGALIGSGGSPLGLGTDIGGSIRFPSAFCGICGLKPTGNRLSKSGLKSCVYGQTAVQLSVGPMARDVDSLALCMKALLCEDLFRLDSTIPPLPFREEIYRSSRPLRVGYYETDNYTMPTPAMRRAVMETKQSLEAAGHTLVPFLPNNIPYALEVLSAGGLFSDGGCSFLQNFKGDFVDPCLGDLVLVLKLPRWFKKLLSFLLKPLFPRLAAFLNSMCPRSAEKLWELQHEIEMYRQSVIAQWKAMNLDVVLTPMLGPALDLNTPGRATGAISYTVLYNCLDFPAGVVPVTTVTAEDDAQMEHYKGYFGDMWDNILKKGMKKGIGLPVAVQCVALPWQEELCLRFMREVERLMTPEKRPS

SMILES | inhibition at 1 µM (MAGL [1]) [%] | inhibition at 1 µM (MAGL [2]) [%] | inhibition at 1 µM (FAAH [3]) [%] | inhibition at 1 µM (FAAH [4]) [%] | IC50 (MAGL [1]) [nM] | IC50 (FAAH [3]) [nM]
O=C(O)c1ccn(C(=O)N2CC3CN(Cc4cccc(C(F)(F)F)c4)CC3C2)n1 (centres unmarked) [Example 122, 1-(5-(3-(trifluoromethyl)benzyl)octahydro-pyrrolo[3,4-c]pyrrole-2-carbonyl)-1H-pyrazole-3-carboxylic acid] | 50 to 75 | 25 to 50 | 0 to 25 | 50 to 75 | – | –
O=C(O)c1nn(C(=O)N2CC3CC(OCc4ccccc4Cl)CC3C2)cc1C(F)(F)F (centres unmarked) [Example 143, 1-(5-((2-chlorobenzyl)oxy)octahydrocyclopenta [c]pyrrole-2-carbonyl)-4-(trifluoromethyl)-1H-pyrazole-3-carboxylic acid] | 0 to 25 | 0 to 25 | > 75 | > 75 | 1000 to 10000 | 100 to 1000
O=C(O)c1ccn(C(=O)N2CC3CN(Cc4ccc(Cl)c(N5CC6COCC6C5)c4)CC3C2)n1 (centres unmarked) [Example 166, 1-(5-(4-chloro-3-(tetrahydro-1H-furo[3,4-c]pyrrol-5(3H)-yl)benzyl)octahydropyrrolo[3,4-c]pyrrole-2-carbonyl)-1H-pyrazole-3-carboxylic acid] | 50 to 75 | > 75 | 0 to 25 | 0 to 25 | – | –
O=C(O)c1ccn(C(=O)N2CCN(Cc3cccc(Oc4cnccn4)c3)CC2)n1 [Example 60] | 25 to 50 | 0 to 25 | 0 to 25 | 0 to 25 | – | –
CN(Cc1cccc(-c2ccccc2)c1)[C@@H]1C[C@@H]2CN(C(=O)n3ccc(C(=O)O)n3)C[C@@H]2C1 [Example 163, 1-(cis-5-(([1,1′-biphenyl]-3-ylmethyl)(methyl)amino)octahydro-cyclopenta[c]pyrrole-2-carbonyl)-1H-pyrazole-3-carboxylic acid] | 0 to 25 | 0 to 25 | 25 to 50 | 0 to 25 | – | –
NC(=O)c1ccn(C(=O)N2CCC3(CCCN3Cc3ccc(C(F)(F)F)cc3N3CCCC3)CC2)n1 [Example 174, 1-(1-(2-(pyrrolidin-1-yl)-4-(trifluoromethyl)benzyl)-1,8-diazaspiro[4.5]decane-8-carbonyl)-1H-pyrazole-3-carboxamide] | > 75 | > 75 | 0 to 25 | 25 to 50 | – | –
Cc1cn(C(=O)N2CCN(Cc3cccc(Oc4ccc(Cl)cc4)c3)CC2)nc1C(=O)O [Example 129, 1-(4-(3-(4-chlorophenoxy)benzyl)piperazine-1-carbonyl)-4-methyl-1H-pyrazole-3-carboxylic acid] | > 75 | > 75 | > 75 | > 75 | – | 100 to 1000
O=C(O)c1ccn(C(=O)N2CC3CN(Cc4cccc(-c5ccccc5)c4)CC3C2)n1 (centres unmarked) [Example 156, 1-(5-([1,1′-biphenyl]-3-ylmethyl)octahydropyrrolo[3,4-c]pyrrole-2-carbonyl)-1H-pyrazole-3-carboxylic acid] | > 75 | > 75 | 0 to 25 | > 75 | – | –
O=C(O)c1nn(C(=O)N2CCN(Cc3ccc(-c4cnc5ccccn45)cc3C(F)(F)F)CC2)cc1Cl [Example 145, 4-chloro-1-(4-(4-(imidazo[1,2-a]pyridin-3-yl)-2-(trifluoromethyl)benzyl)piperazine-1-carbonyl)-1H-pyrazole-3-carboxylic acid] | > 75 | > 75 | 50 to 75 | > 75 | – | –

The remaining lines, values ahead:

inhibition at 1 µM (MAGL [1]) [%] | inhibition at 1 µM (MAGL [2]) [%] | inhibition at 1 µM (FAAH [3]) [%] | inhibition at 1 µM (FAAH [4]) [%] | IC50 (MAGL [1]) [nM] | IC50 (FAAH [3]) [nM] | SMILES
> 75 | > 75 | 0 to 25 | 0 to 25 | – | – | O=C(O)c1ccn(C(=O)N2CCC3(CCN(Cc4ccc(C(F)(F)F)c(Cl)c4)C3)CC2)n1 [Example 78, 1-(2-(3-chloro-4-(trifluoromethyl)benzyl)-2,8-diazaspiro[4.5]decane-8-carbonyl)-1H-pyrazole-3-carboxylic acid]
> 75 | > 75 | 0 to 25 | 50 to 75 | – | – | O=C(O)c1ccn(C(=O)N2CCC3(CCN(Cc4cc(F)cc(C(F)(F)F)c4)C3)CC2)n1 [Example 152, 1-(2-(3-fluoro-5-(trifluoromethyl)benzyl)-2,8-diazaspiro[4.5]decane-8-carbonyl)-1H-pyrazole-3-carboxylic acid]
> 75 | > 75 | 0 to 25 | 0 to 25 | – | – | O=C(O)c1ccn(C(=O)N2CCC3(CCN(Cc4c(Cl)cccc4C(F)(F)F)C3)CC2)n1 [Example 74, 1-(2-(2-chloro-6-(trifluoromethyl)benzyl)-2,8-diazaspiro[4.5]decane-8-carbonyl)-1H-pyrazole-3-carboxylic acid]
> 75 | 25 to 50 | 0 to 25 | 0 to 25 | – | – | O=C(O)c1ccn(C(=O)N2CCC3(CCN(Cc4cccc(C(F)(F)F)c4)C3)CC2)n1 [Example 192, 1-(2-(3-(trifluoromethyl)benzyl)-2,8-diazaspiro[4.5]decane-8-carbonyl)-1H-pyrazole-3-carboxylic acid]
25 to 50 | 0 to 25 | 0 to 25 | 0 to 25 | – | – | O=C(O)c1ccn(C(=O)N2CCC3(CCN(Cc4ccc(N5CCOCC5)cc4Cl)C3)CC2)n1 [Example 169, 1-(2-(2-chloro-4-morpholinobenzyl)-2,8-diazaspiro[4.5]decane-8-carbonyl)-1H-pyrazole-3-carboxylic acid]
25 to 50 | 25 to 50 | 50 to 75 | > 75 | – | – | O=C(O)c1nn(C(=O)N2CCC3(CCN(Cc4ccc(N5CCCC5)cc4C(F)(F)F)C3)CC2)cc1C(F)(F)F [Example 150, 1-(2-(4-(pyrrolidin-1-yl)-2-(trifluoromethyl)benzyl)-2,8-diazaspiro[4.5]decane-8-carbonyl)-4-(trifluoromethyl)-1H-pyrazole-3-carboxylic acid]
> 75 | > 75 | 0 to 25 | 0 to 25 | – | – | O=C(O)c1ccn(C(=O)N2CCC3(CCN(Cc4cc(Cl)cc(N5CCCC5)c4)C3)CC2)n1 [Example 44, 1-(2-(3-chloro-5-(pyrrolidin-1-yl)benzyl)-2,8-diazaspiro[4.5]decane-8-carbonyl)-1H-pyrazole-3-carboxylic acid]
> 75 | > 75 | > 75 | > 75 | – | – | NC(=O)c1ccn(C(=O)N2CCC3(CCN(Cc4cc(Cl)ccc4C(F)(F)F)C3)CC2)n1 [Example 99, 1-(2-(5-chloro-2-(trifluoromethyl)benzyl)-2,8-diazaspiro[4.5]decane-8-carbonyl)-1H-pyrazole-3-carboxamide]
